How the values were obtained:
[1] = target: T1, GDP-loaded K-Ras (1-169) C51S, C80L, C118S (Homo sapiens, UniProt P01116, C118S/C51S/C80L); assay: K-Ras WT (GDP) cross-linking assay (conjugate formation, TOF mass spectrometry); assay type: binding; design: key: 0: No observed x-linking; +: 0 < x ≤ 20; ++: 20 < x ≤ 40; +++: 40 < x ≤ 100; settings: Table 5; percent covalently modified K-Ras by MS; room temperature; typical compound conc. 2, 10, 25 μM, endpoints 1 and 24 h
T1 construct: GDP-loaded K-Ras (1-169) C51S, C80L, C118S
Procedure: (§1) Protocol: K-Ras G12D(GDP) Cross-Linking Assay
(§2) Note: while the following protocol outlines the procedure for K-Ras G12D(GDP), a person of skill in the art may substitute other Ras proteins, and may also substitute a non-hydrolyzable GTP analog for GDP to study GTP bound Ras protein.
(§3) GDP-loaded K-Ras (1-169) G12D, C51S, C80L, C118S and GDP-loaded K-Ras (1-169) C51S, C80L, C118S were adjusted to 50 μM in K-Ras assay buffer (12.5 mM HEPES, 75 mM NaCl and 1 mM MgCl2 at pH 7.4). A 5 μL aliquot of each protein solution was added to each well of a 96-well microplate containing 40 μL of assay buffer. Initial compound stocks were prepared in DMSO at 100 times their final assay concentration. Compounds were then diluted 10-fold into K-Ras assay buffer to 10 times their final concentration. A 5 μL aliquot of each diluted compound solution was added to each protein solution in the 96-well microplate to initiate the reaction, which then proceeded at room temperature. Typical final compound concentrations were 2, 10, and 25 μM. At each time point, the reactions were analyzed immediately or quenched with 5 μL of a 5% formic acid solution and kept at 4° C. until analysis. Typical assay endpoints were 1 and 24 h.
(§4) Data collection took place on an Agilent 6230 TOF Mass Spectrometer. Complete reactions were injected onto a C4 reverse-phase column to separate protein from buffer components prior to entering the mass spectrometer. The proteins were eluted from the column by increasing acetonitrile fraction in the mobile phase and fed directly into the mass analyzer. Initial analysis of raw data took place in Agilent MassHunter BioConfirm software and consisted of deconvolution of multiple protein charge states with the maximum entropy algorithm, with a mass step of 1 Da. The heights of all deconvoluted protein masses were exported for further data analysis. The percent modification of each protein was then determined by calculating the peak height of the covalently modified K-Ras species as a percentage of the sum total of K-Ras protein peak height.

[2] = target: T2, GDP-loaded K-Ras (1-169) G12D, C51S, C80L, C118S (Homo sapiens, UniProt P01116, C118S/C51S/C80L/G12D); assay: K-Ras G12D(GDP) cross-linking assay (conjugate formation, TOF mass spectrometry); assay type: binding; design: key: 0: No observed x-linking; +: 0 < x ≤ 20; ++: 20 < x ≤ 40; +++: 40 < x ≤ 100; settings: Table 5; percent covalently modified K-Ras by MS; room temperature; typical compound conc. 2, 10, 25 μM, endpoints 1 and 24 h
T2 construct: GDP-loaded K-Ras (1-169) G12D, C51S, C80L, C118S
Procedure: as §1, §2, §3, §4

SMILES	WT x-linking (%) [1]	G12D x-linking (%) [2]
CN1CCC[C@H]1COc1nc2c(c(N3CCN(C(=O)[C@@H]4CN4)[C@@H](CC#N)C3)n1)CCN(c1cccc3cccc(Cl)c13)C2 [Example 113, 2-((S)-1-((S)-aziridine-2-carbonyl)-4-(7-(8-chloronaphthalen-1-yl)-2-(((S)-1-methylpyrrolidin-2-yl)methoxy)-5,6,7,8-tetrahydropyrido[3,4-d]pyrimidin-4-yl)piperazin-2-yl)acetonitrile]	+ (0 < x ≤ 20)	+ (0 < x ≤ 20)
Cc1ccnc(C(C)C)c1-n1c(=O)nc(N2C[C@H](C)N(C(=O)[C@H]3CN3)C[C@H]2C)c2cc(F)c(-c3c(O)cccc3F)nc21 [Example 139]	0	0
COc1ccccc1CN=C=N[C@@H]1CCN(c2nc(OC[C@@H]3CCCN3C)nc3c2CCN(c2cccc4cccc(C)c24)C3)C[C@@H]1CC#N [Example 102, 2-((3S,4R)-4-((((2-methoxybenzyl)imino)methylene)amino)-1-(7-(8-methylnaphthalen-1-yl)-2-(((S)-1-methylpyrrolidin-2-yl)methoxy)-5,6,7,8-tetrahydropyrido[3,4-d]pyrimidin-4-yl)piperidin-3-yl)acetonitrile]	+ (0 < x ≤ 20)	+ (0 < x ≤ 20)
O=C([C@@H]1CN1)N1CCN2c3ncnc4cc(-c5c(O)cccc5F)c(Cl)c(c34)OC[C@@H]2C1 [Example 121]	0	0
CO[C@@H]1CCC[C@@H]1N=C=NC1CCN(c2nc(OC[C@@H]3CCCN3C)nc3c2CCN(c2cccc4cccc(C)c24)C3)CC1 (single isomer, unassigned) [Example 149]	+ (0 < x ≤ 20)	++ (20 < x ≤ 40)
Cc1ccnc(C(C)C)c1-n1c(=O)nc(N2[C@H](C)CN(C(=O)[C@H]3CN3)C[C@@H]2C)c2cc(F)c(-c3c(O)cccc3F)nc21 [Example 135]	0	0
Cc1cccc2cccc(N3CCc4c(nc(OC[C@@H]5CCCN5C)nc4N4CCN(C(=O)[C@@H]5CN5C)[C@@H](CC#N)C4)C3)c12 (stereo partly drawn) [Example 107, 2-((S)-1-((S)-1-methylaziridine-2-carbonyl)-4-(7-(8-methylnaphthalen-1-yl)-2-(((S)-1-methylpyrrolidin-2-yl)methoxy)-5,6,7,8-tetrahydropyrido[3,4-d]pyrimidin-4-yl)piperazin-2-yl)acetonitrile]	0	+ (0 < x ≤ 20)
CO[C@H]1CCC[C@H]1N=C=NC1CCN(c2nc(OC[C@@H]3CCCN3C)nc3c2CCN(c2cccc4cccc(C)c24)C3)CC1 (single isomer, unassigned) [Example 150]	+ (0 < x ≤ 20)	+ (0 < x ≤ 20)
Cc1cccc2cccc(N3CCc4c(nc(OC[C@@H]5CCCN5C)nc4N4CCN(C(=O)[C@H]5CN5Cc5ccccc5)[C@@H](CC#N)C4)C3)c12 (stereo partly drawn) [Example 96, 2-((S)-1-((R)-1-benzylaziridine-2-carbonyl)-4-(7-(8-methylnaphthalen-1-yl)-2-(((S)-1-methylpyrrolidin-2-yl)methoxy)-5,6,7,8-tetrahydropyrido[3,4-d]pyrimidin-4-yl)piperazin-2-yl)acetonitrile]	+ (0 < x ≤ 20)	+ (0 < x ≤ 20)
C#CCCN1CCC[C@H]1COc1nc2c(c(N3CCN(C(=O)[C@@H]4CN4)[C@@H](CC#N)C3)n1)CCN(c1cccc3cccc(C)c13)C2 [Example 117, 2-((S)-1-((S)-aziridine-2-carbonyl)-4-(2-(((S)-1-(but-3-yn-1-yl)pyrrolidin-2-yl)methoxy)-7-(8-methylnaphthalen-1-yl)-5,6,7,8-tetrahydropyrido[3,4-d]pyrimidin-4-yl)piperazin-2-yl)acetonitrile]	0	+ (0 < x ≤ 20)
Cc1ccc2[nH]ncc2c1N1CCc2c(nc(OC[C@@H]3CCCN3C)nc2N2CCN(C(=O)[C@H]3CN3)[C@@H](CC#N)C2)C1 [Example 110, 2-((S)-1-((R)-aziridine-2-carbonyl)-4-(7-(5-methyl-1H-indazol-4-yl)-2-(((S)-1-methylpyrrolidin-2-yl)methoxy)-5,6,7,8-tetrahydropyrido[3,4-d]pyrimidin-4-yl)piperazin-2-yl)acetonitrile]	+ (0 < x ≤ 20)	+ (0 < x ≤ 20)
Cc1cccc2cccc(N3CCc4c(nc(OC[C@@H]5CCCN5C)nc4N4CC[C@@H](NC(=O)[C@@H]5CN5)[C@@H](CC#N)C4)C3)c12 [Example 128]	+ (0 < x ≤ 20)	+ (0 < x ≤ 20)
CO[C@H]1CCCC[C@H]1N=C=NC1CCN(c2nc(OC[C@@H]3CCCN3C)nc3c2CCN(c2cccc4cccc(C)c24)C3)CC1 [Example 148]	+ (0 < x ≤ 20)	+ (0 < x ≤ 20)
COC(=O)[C@@H]1CN1C(=O)N1CCN(c2nc(OC[C@@H]3CCCN3C)nc3c2CCN(c2cccc4cccc(C)c24)C3)C[C@@H]1CC#N [Example 109, methyl (S)-1-((S)-2-(cyanomethyl)-4-(7-(8-methylnaphthalen-1-yl)-2-(((S)-1-methylpyrrolidin-2-yl)methoxy)-5,6,7,8-tetrahydropyrido[3,4-d]pyrimidin-4-yl)piperazine-1-carbonyl)aziridine-2-carboxylate]	+ (0 < x ≤ 20)	+ (0 < x ≤ 20)
CC(=O)N1C[C@H]1CN1CCN(c2nc(OC[C@@H]3CCCN3C)nc3c2CCN(c2cccc4cccc(C)c24)C3)C[C@@H]1CC#N [Example 118, 2-((S)-1-(((R)-1-acetylaziridin-2-yl)methyl)-4-(7-(8-methylnaphthalen-1-yl)-2-(((S)-1-methylpyrrolidin-2-yl)methoxy)-5,6,7,8-tetrahydropyrido[3,4-d]pyrimidin-4-yl)piperazin-2-yl)acetonitrile]	+ (0 < x ≤ 20)	+ (0 < x ≤ 20)
O=C([C@H]1CN1)N1CCN2c3ncnc4cc(-c5c(O)cccc5F)c(Cl)c(c34)OC[C@@H]2C1 [Example 120, ((R)-aziridin-2-yl)((8aS)-6-chloro-5-(2-fluoro-6-hydroxyphenyl)-8a,9,11,12-tetrahydropyrazino[2′,1′:3,4][1,4]oxazepino[5,6,7-de]quinazolin-10(8H)-yl)methanone]	0	0
Cc1ccnc(C(C)C)c1-n1c(=O)nc(N2[C@H](C)CN(C(=O)[C@@H]3CN3)C[C@H]2C)c2cc(F)c(-c3c(O)cccc3F)nc21 [Example 142]	+ (0 < x ≤ 20)	+ (0 < x ≤ 20)
C#CCCN1CCC[C@H]1COc1nc2c(c(N3CCN(C(=O)[C@H]4CN4)[C@@H](CC#N)C3)n1)CCN(c1cccc3cccc(C)c13)C2 [Example 116, 2-((S)-1-((R)-aziridine-2-carbonyl)-4-(2-(((S)-1-(but-3-yn-1-yl)pyrrolidin-2-yl)methoxy)-7-(8-methylnaphthalen-1-yl)-6,6,7,8-tetrahydropyrldo[3,4-d]pyrimidin-4-yl)piperazin-2-yl)acetonitrile]	+ (0 < x ≤ 20)	+ (0 < x ≤ 20)
Cc1cccc2cccc(N3CCc4c(nc(OC[C@@H]5CCCN5C)nc4N4CCN(C(=O)[C@@H]5CN5Cc5ccccc5)[C@@H](CC#N)C4)C3)c12 (stereo partly drawn) [Example 97, 2-((S)-1-((S)-1-benzylaziridine-2-carbonyl)-4-(7-(8-methylnaphthalen-1-yl)-2-(((S)-1-methylpyrrolidin-2-yl)methoxy)-5,6,7,8-tetrahydropyrido[3,4-d]pyrimidin-4-yl)piperazin-2-yl)acetonitrile]	+ (0 < x ≤ 20)	+ (0 < x ≤ 20)
CO[C@@H]1CCCC[C@@H]1N=C=NC1CCN(c2nc(OC[C@@H]3CCCN3C)nc3c2CCN(c2cccc4cccc(C)c24)C3)CC1 [Example 146]	+ (0 < x ≤ 20)	+ (0 < x ≤ 20)
Cc1ccnc(C(C)C)c1-n1c(=O)nc(N2[C@H](C)CN(C(=O)[C@@H]3CN3)C[C@@H]2C)c2cc(F)c(-c3c(O)cccc3F)nc21 [Example 140]	0	0
